Measured values reported in patent US20050267166A1, “Continuous dosing regimen” (priority 2004, published 2005).
Marks after values point to notes of the source that are not given here.

Legend:
MiaPaCa-2 pancreatic = test: MiaPaCa-2 orthotopic tumor model; assay type: in vivo, human; conditions: for % T/C: orthotopic, d 1-5, 11-15
Source text: (2-((4-hydroxyphenyl)amino)pyrid-3-yl)-4-methoxybenzenesulfonamide inhibited the growth of a variety of human tumor xenografts that were allowed to grow into established tumors prior to the initiation of treatment. As summarized below, activity was seen against established tumors derived from colon, breast and lung carcinomas. (2-((4-hydroxyphenyl)amino)pyrid-3-yl)-4-methoxybenzenesulfonamide was also active against a human pancreatic tumor xenograft grown in the orthotopic site.

H-31 breast cancer = test: human tumor xenograft in nude mice, H-31; assay type: in vivo; conditions: Q1D × 19, 80 mg/kg/day
[1] = pharmacokinetics in cancer subjects, single dose and 5-day repeated dose; assay type: in vivo, human
Procedure: (2-((4-hydroxyphenyl)amino)pyrid-3-yl)-4-methoxybenzenesulfonamide was evaluated in 57 cancer subjects in single dose (16 subjects) and 5-day repeated dose regimens (41 subjects). The doses administered in the single dose segment were 80 to 480 mg/m^2/day. In the 5-day repeated dose regimen (2-((4-hydroxyphenyl)amino)pyrid-3-yl)-4-methoxybenzenesulfonamide was given at 30 to 240 mg/m^2/day for a single cycle. […] Adverse drug reactions from the single dose and 5-day repeated dose segments included nausea and vomiting, diarrhea, epigastric pain, ileus and evidence of peripheral neuropathy. For the single dose segment, the dose limiting toxicity (DLT) was Grade 3 peripheral neuropathy in 1 of 5 subjects at 480 mg/m^2/day. In the 5-day repeated dose regimen the dose limiting toxicities were Grade 3 peripheral neuropathy in 1 of 4 subjects at 210 mg/m^2/day and Grade 4 intestinal paralysis in 1 of 4 subjects at 210 mg/m^2/day and in 1 of 6 subjects at 240 mg/m^2/day.

H-154 gastric cancer = test: human tumor xenograft in nude mice, H-154; assay type: in vivo; conditions: Q5D × 5, 300 mg/kg/day
C26 colon tumors = C26 colon tumors grown in the flank of CDF-1 mice; assay type: in vivo
LC-376 lung cancer = test: human tumor xenograft in nude mice, LC-376; assay type: in vivo; conditions: Q5D × 5, 300 mg/kg/day
SC-6 gastric cancer = test: human tumor xenograft in nude mice, SC-6; assay type: in vivo; conditions: Q5D × 5, 500 mg/kg/day
Calu-6 lung carcinoma = test: Calu-6 NSCL flank xenograft model (staged); assay type: in vivo, human
Procedure: (§1) Following inoculation of tumor cells, tumors were passaged three times in mice before using the fragments to generate single cell suspensions. Multiple animals were used as donors. Single cell suspensions were generated by homogenizing the minced tumor tissue in RPMI 1640 media. Cell suspensions were washed three times to remove debris and other foreign materials. Viable cells were counted by trypan blue exclusion technique using a hemocytometer. Mice were injected subcutaneously with 0.5 mL of the cell suspension containing 1×10^6 cells.
On day 10, mice bearing established tumors were size matched and grouped at about 233 mm^3.

[2] = system: HCT-15 human colon carcinoma; test: HCT-15 human colon carcinoma xenografts; assay type: in vivo
Source text: HCT-15 is a human colon carcinoma derived cell line. It is MDR positive, and expresses both mutant p53 and oncogenic K-ras. The HCT-15 cell line has one of the highest levels of mdr-1/P-glycoprotein expression of cells from the NCI tumor cell line panel.
Effect of Cytotoxic Agents on the Growth of HCT-15 Human Colon Carcinoma Xenografts

H-143 colorectal cancer = test: human tumor xenograft in nude mice, H-143; assay type: in vivo; conditions: Q5D × 5, 300 mg/kg/day
[3] = system: COLO320DM colorectal cancer; test: human tumor xenograft in nude mice, COLO320DM; assay type: in vivo; conditions: Q1D × 19, 120 mg/kg/day
HT-1376 bladder = test: HT-1376 orthotopic tumor model; assay type: in vivo, human; conditions: d 1-5, 11-15
WiDr colorectal cancer = test: human tumor xenograft in nude mice, WiDr; assay type: in vivo; conditions: Q1D × 20, 100 mg/kg/day
H-111 gastric cancer = test: human tumor xenograft in nude mice, H-111; assay type: in vivo; conditions: Q1D × 19, 80 mg/kg/day
HT-29 colon carcinoma = test: HT-29 colon flank xenograft model (staged); assay type: in vivo, human
Procedure: as §1
On day 10, mice bearing established tumors were size matched and grouped at about 236 mm^3.

KB oral cancer = test: human tumor xenograft in nude mice, KB; assay type: in vivo; conditions: Q1D × 20, 100 mg/kg/day
[4] = MTD and safety in the 7-day and 21-day QD regimens in patients; assay type: in vivo
Procedure: In the 7-day QD regimen, the 250 mg QD dose has been determined to be the MTD, as dose limiting toxicities of peripheral neuropathy/ileus were reported in 2 of 6 subjects at the 300 mg QD dose.
The tumor types studied were colorectal (23), sarcoma (5), mesothelioma (3), salivary gland (2), endometrial (2), unknown (2), hepatoma (1), melanoma (1), renal cell (1), lung (1), ovary (1), and granulosa cell (1). […] Doses were escalated by 50 mg/day (25 mg twice per day). Three patients were initially treated at each dose level. […] If additional patients experienced dose-limiting toxicity, on occasion the dose level was expanded to nine patients to further assess tolerability. Response assessment was performed every two cycles.

H-81 gastric cancer = test: human tumor xenograft in nude mice, H-81; assay type: in vivo; conditions: Q5D × 5, 300 mg/kg/day
[5] = oral 75 mg/kg/d QD, d 10-14, 20-24
[6] = oral 100 mg/kg/d QD, d 10-14, 20-24

## COc1ccc(S(=O)(=O)Nc2cccnc2Nc2ccc(O)cc2)cc1 [ABT-751, N-(2-((4-hydroxyphenyl)amino)pyrid-3-yl)-4-methoxybenzenesulfonamide]
MiaPaCa-2 pancreatic; in combination with gemcitabine, MiaPaCa2 pancreatic xenograft
  antitumor activity in combination with gemcitabine compared to single agent alone: increase in antitumor activity
MiaPaCa-2 pancreatic; oral 75 mg/kg/d QD
  % T/C: 79%
MiaPaCa-2 pancreatic; oral 100 mg/kg/d QD
  % T/C: 56%
H-31 breast cancer
  T/C (%): 13%
[1]; human, plasma, cancer subjects, single dose and 5-day repeated dose, read-out: elimination half-life
  half-life: 4 to 16 h
[1]; range of 30 to 480 mg/m^2/day
  AUC versus dose: increased proportionally with dose
H-154 gastric cancer
  T/C (%): 71%
C26 colon tumors; 5-day schedule
  antitumor activity against C26 colon tumors: only marginally active
C26 colon tumors; extended dosing
  antitumor activity against C26 colon tumors: significant antitumor response
LC-376 lung cancer
  T/C (%): 18%
SC-6 gastric cancer
  T/C (%): 22%
Calu-6 lung carcinoma; 100 and 75 mg/kg/day, (5 day on/5 day off)×2
  antitumor activity as single agent: significant antitumor activity
Calu-6 lung carcinoma; in combination with cisplatin
  response in combination with cisplatin: greater than additive responses
Calu-6 lung carcinoma; oral 50 mg/kg/d QD, d 1-21
  % T/C: 54%
Calu-6 lung carcinoma; [5]
  % ILS: 58%
  % T/C: 50%
Calu-6 lung carcinoma; [6]
  % T/C: 37%
[2]; 50 mg/kg/d PO, QD, days 1-8
  % ILS: 34%
[2]; 50 mg/kg/d PO, QD, days 1-8, 2 trials
  T/C: 50 (2)
[2]; in words
  efficacy in HCT-15 xenografts: effective in inhibiting tumor growth
H-143 colorectal cancer
  T/C (%): 17%
[3]
  T/C (%): 42%
HT-1376 bladder; oral 100 mg/kg/d QD
  % T/C: 63%
HT-1376 bladder; oral 100 mg/kg/d b.i.d.
  % T/C: 86^e %
WiDr colorectal cancer
  T/C (%): 22%
H-111 gastric cancer
  T/C (%): 36%
HT-29 colon carcinoma; 100 and 75 mg/kg/day, (5 days on/5 days off)×2
  antitumor activity as single agent: significant antitumor activity
HT-29 colon carcinoma; in combination with 5-fluorouracil at 30 mg/kg/day, higher doses
  response in combination with 5-fluorouracil: additive responses
HT-29 colon carcinoma; oral 50 mg/kg/d QD, d 1-21
  % T/C: 55%
HT-29 colon carcinoma; [5]
  % ILS: 50%
  % T/C: 43%
HT-29 colon carcinoma; [6]
  % T/C: 28%
KB oral cancer
  T/C (%): 15%
[4]; 7-day QD regimen
  MTD: 250 mg
[4]; QD regimen given for 21 days
  MTD: 200 mg
[4]; human, in vivo
  dose limiting toxicities of fatigue, anorexia and suspect small bowel obstruction, subjects affected: ⅔
  myelosuppression, renal or hepatic toxicity: no significant
[4]; human, in vivo, 7 days
  dose limiting toxicities of peripheral neuropathy/ileus, subjects affected: 2 of 6
H-81 gastric cancer
  T/C (%): 40%
